From article PMC10600165 (Nature Communications, 2023)

Target: HK68 (human A/H3N2 HA) (Influenza A virus (A/Hong Kong/1/1968(H3N2)), UniProt Q91MA7)
Type: binding

HK68 (human A/H3N2 HA) (Influenza A virus (A/Hong Kong/1/1968(H3N2)), UniProt Q91MA7), sequence (Q91MA7 17-530 limits assumed): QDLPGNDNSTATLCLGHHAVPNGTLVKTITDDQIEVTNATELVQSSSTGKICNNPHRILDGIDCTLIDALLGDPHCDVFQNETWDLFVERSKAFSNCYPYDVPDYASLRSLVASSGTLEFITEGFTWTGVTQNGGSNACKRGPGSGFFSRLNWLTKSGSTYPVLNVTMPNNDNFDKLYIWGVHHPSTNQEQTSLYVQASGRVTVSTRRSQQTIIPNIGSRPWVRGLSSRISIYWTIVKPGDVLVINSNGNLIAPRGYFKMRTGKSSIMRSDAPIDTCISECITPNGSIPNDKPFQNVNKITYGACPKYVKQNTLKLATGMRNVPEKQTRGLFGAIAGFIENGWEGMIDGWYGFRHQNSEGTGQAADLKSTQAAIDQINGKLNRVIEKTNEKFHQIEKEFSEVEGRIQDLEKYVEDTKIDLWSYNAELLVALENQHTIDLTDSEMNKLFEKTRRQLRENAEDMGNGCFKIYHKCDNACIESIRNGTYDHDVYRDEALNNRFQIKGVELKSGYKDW

**Q.** `CC(=O)N[C@H]1[C@H](OCCCCCNC(=O)CCCC[C@@H]2SC[C@@H]3NC(=O)N[C@@H]32)O[C@H](CO)[C@@H](O[C@@H]2O[C@H](CO[C@]3(C(=O)O)C[C@H](OC(C)=O)[C@@H](NC(C)=O)[C@H]([C@H](O)[C@H](O)CO)O3)[C@H](O)[C@H](O)[C@H]2O)[C@@H]1O` [compound 6] was tested. Which “glycan microarray, fluorescence” value did it give?
**A.** Its value is “specific for 4-O-acetylated Neu5Ac and does not depend on linkage type”.
